In paper PMC4300089, “Structure-Guided Design of Selective Epac1 and Epac2 Agonists” (PLoS Biology, 2015):

Tests used:
Assay type in all cases: biochemical
PKA-IIβ = molecular target: T1, PKA-IIβ (Homo sapiens, UniProt P31323); assay: PKA activity assay, PKA-IIβ; details: for A (PKA activity): PKAIIβ
T1 construct: made in house
Protocol: (§1) The recombinant human PKA catalytic subunit (Cα1) and the four human PKA regulatory subunits (RIα, RIβ, RIIα, RIIβ) were expressed, purified, and characterized as described. […] PKA holoenzymes were formed by mixing the R- and C-subunit at a molar ratio of 1.2:1 and extensive dialysis against 20 mM MOPS (pH 7.0), 150 mM NaCl, 2.5 mM β-mercaptoethanol, supplemented with 1 mM ATP and 10 mM MgCl2 for PKA-I at 4°C overnight. PKA holoenzymes were used at about 20 nM for the activation assay. The apparent activation constants (Kact) were determined by fitting the concentration-dependent activity to a sigmoid dose-response model.

Epac2^fl = molecular target: T2, Epac2^fl (Mus musculus, UniProt Q9EQZ6); assay: Epac activation assay, full length Epac2; design: made in house
T2 sequence (Q9EQZ6 1-993 isoform Q9EQZ6-3): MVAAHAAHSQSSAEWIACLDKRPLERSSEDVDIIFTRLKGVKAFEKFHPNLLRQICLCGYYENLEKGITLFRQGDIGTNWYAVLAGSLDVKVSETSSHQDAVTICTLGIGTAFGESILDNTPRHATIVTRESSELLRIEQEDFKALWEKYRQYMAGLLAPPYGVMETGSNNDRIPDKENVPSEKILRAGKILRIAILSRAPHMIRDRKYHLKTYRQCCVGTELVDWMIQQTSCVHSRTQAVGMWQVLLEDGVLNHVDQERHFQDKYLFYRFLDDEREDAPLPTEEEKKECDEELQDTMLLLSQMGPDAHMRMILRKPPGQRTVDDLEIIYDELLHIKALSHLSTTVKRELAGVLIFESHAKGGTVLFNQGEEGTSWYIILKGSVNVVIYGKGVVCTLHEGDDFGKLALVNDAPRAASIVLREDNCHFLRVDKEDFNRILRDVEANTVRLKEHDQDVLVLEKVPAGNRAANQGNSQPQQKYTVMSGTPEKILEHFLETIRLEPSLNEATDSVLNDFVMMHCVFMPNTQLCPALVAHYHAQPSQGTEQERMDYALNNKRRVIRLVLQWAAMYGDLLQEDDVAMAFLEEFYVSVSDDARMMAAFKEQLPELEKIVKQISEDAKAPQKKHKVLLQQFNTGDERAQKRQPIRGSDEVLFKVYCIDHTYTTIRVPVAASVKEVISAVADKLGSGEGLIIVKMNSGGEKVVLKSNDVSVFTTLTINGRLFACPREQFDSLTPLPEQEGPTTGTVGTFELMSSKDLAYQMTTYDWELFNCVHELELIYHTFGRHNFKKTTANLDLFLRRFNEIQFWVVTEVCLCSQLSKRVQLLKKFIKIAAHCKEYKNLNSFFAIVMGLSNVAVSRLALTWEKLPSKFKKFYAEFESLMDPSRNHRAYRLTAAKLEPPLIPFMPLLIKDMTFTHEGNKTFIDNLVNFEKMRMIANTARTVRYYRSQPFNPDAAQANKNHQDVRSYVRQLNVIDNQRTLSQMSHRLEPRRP
Protocol: Murine Epac2 was used as all previous structural studies were performed with it.
The activity of Epac was determined by a fluorescence assay. […] The fluorescence intensity of Rap1B•mGDP is approximately twice that of free mGDP, and thus, nucleotide exchange can be observed as a decay in fluorescence upon the addition of excess unlabeled GDP.

PKA-Iα = molecular target: T3, PKA-Iα (Homo sapiens, UniProt P10644); assay: PKA activity assay (coupled spectrophotometric, Kemptide), PKA-Iα; details: for A (PKA activity): PKAIα
T3 construct: made in house
T3 sequence (P10644 whole entry): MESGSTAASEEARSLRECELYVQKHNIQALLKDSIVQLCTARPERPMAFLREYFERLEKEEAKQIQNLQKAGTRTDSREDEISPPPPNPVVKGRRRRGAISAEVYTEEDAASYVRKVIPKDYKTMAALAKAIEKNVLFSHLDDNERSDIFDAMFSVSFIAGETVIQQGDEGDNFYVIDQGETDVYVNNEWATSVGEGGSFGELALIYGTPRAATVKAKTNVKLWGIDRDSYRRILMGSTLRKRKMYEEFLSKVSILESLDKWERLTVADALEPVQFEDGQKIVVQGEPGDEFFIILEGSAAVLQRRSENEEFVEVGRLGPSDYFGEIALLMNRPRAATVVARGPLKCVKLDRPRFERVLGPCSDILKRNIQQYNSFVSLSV
Protocol: as §1

PKA-Iβ = molecular target: T4, PKA-Iβ (Homo sapiens, UniProt P31321); assay: PKA activity assay, PKA-Iβ; details: for A (PKA activity): PKAIβ
T4 construct: made in house
T4 sequence (P31321 whole entry): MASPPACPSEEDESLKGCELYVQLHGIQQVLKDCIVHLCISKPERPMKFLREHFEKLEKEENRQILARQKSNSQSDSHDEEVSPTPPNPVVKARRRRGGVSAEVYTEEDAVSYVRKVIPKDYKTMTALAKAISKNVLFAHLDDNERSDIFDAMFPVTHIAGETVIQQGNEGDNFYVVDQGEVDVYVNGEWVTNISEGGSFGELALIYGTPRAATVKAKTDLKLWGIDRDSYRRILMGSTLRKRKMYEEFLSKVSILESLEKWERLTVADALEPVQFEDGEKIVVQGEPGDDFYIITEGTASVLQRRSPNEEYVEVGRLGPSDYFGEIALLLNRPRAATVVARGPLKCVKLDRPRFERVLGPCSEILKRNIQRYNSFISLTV
Protocol: as §1

T1 sequence (P31323 whole entry): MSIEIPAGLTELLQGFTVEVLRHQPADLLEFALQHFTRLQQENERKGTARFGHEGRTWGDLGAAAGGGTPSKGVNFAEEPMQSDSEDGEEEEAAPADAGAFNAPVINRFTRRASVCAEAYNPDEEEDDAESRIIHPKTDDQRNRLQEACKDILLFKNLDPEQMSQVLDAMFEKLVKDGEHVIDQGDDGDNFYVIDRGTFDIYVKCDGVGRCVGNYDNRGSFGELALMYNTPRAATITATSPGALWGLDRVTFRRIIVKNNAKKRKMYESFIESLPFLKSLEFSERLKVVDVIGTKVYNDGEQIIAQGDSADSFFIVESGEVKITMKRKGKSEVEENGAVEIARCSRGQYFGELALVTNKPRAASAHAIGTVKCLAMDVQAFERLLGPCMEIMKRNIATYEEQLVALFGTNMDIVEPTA

**Q.** For `Nc1ncnc2c1nc(SCc1ccccc1)n2[C@@H]1O[C@@H]2CO[P@](O)(=S)O[C@H]2[C@H]1O` [S-220, Sp-8-BnT-cAMPS], which “Kact compared to cAMP (times higher / affinity reduced)” value (PKA-IIβ; PKA-IIβ) is on record?
**A.** comparable affinities

**Q.** And the EC50 (PKA-IIβ; PKA-IIβ, read-out: Kact)?
**A.** 210 nM

**Q.** What about the “A (PKA activity)” value (PKA-IIβ; concentration 1 μM) of the same compound?
**A.** 1.92E+01 U/mg

**Q.** What about the “A (PKA activity)” value (PKA-IIβ; concentration 1.00E+01 μM) of the same compound?
**A.** 2.49E+01 U/mg

**Q.** What about the “A (PKA activity)” value (PKA-IIβ; concentration 1.00E-01 μM) of the same compound?
**A.** 1.08E+01 U/mg

**Q.** And the “A (PKA activity)” value (PKA-IIβ; concentration 1.00E-02 μM)?
**A.** 5.378 U/mg

**Q.** And the “A (PKA activity)” value (PKA-IIβ; concentration 1.00E-03 μM)?
**A.** 4.482 U/mg

**Q.** What about the “A (PKA activity)” value (PKA-IIβ; concentration 1.00E-04 μM) of the same compound?
**A.** 4.9341 U/mg

**Q.** What about the “A (PKA activity)” value (PKA-IIβ; concentration 1.00E-05 μM) of the same compound?
**A.** 2.8563 U/mg

**Q.** And the “A (PKA activity)” value (PKA-IIβ; concentration 2.50E+02 μM)?
**A.** 2.44E+01 U/mg

**Q.** What about the “A (PKA activity)” value (PKA-IIβ; concentration 2.50E-01 μM) of the same compound?
**A.** 1.60E+01 U/mg

**Q.** And the kobs (Epac2^fl; 0.001 μM compound)?
**A.** 1.9e-05 s⁻¹

**Q.** And the kobs (Epac2^fl; 0.03 μM compound)?
**A.** 4.4e-05 s⁻¹

**Q.** And the kobs (Epac2^fl; 0.04 μM compound)?
**A.** 4.9e-05 s⁻¹

**Q.** And the kobs (Epac2^fl; 0.05 μM compound)?
**A.** 5.4e-05 s⁻¹

**Q.** What about the kobs (Epac2^fl; 0.06 μM compound) of the same compound?
**A.** 6e-05 s⁻¹

**Q.** And the kobs (Epac2^fl; 0.07 μM compound)?
**A.** 6.8e-05 s⁻¹

**Q.** And the kobs (Epac2^fl; 0.08 μM compound)?
**A.** 6.9e-05 s⁻¹

**Q.** What about the kobs (Epac2^fl; 0.1 μM compound) of the same compound?
**A.** 9.1e-05 s⁻¹

**Q.** And the kobs (Epac2^fl; 0.2 μM compound)?
**A.** 0.00016 s⁻¹

**Q.** And the kobs (Epac2^fl; 0.3 μM compound)?
**A.** 0.000217 s⁻¹

**Q.** And the kobs (Epac2^fl; 0.4 μM compound)?
**A.** 0.000258 s⁻¹

**Q.** And the kobs (Epac2^fl; 0.5 μM compound)?
**A.** 0.000295 s⁻¹

**Q.** And the kobs (Epac2^fl; 0.6 μM compound)?
**A.** 0.000369 s⁻¹

**Q.** And the kobs (Epac2^fl; 0.7 μM compound)?
**A.** 0.000402 s⁻¹

**Q.** And the kobs (Epac2^fl; 0.8 μM compound)?
**A.** 0.000428 s⁻¹

**Q.** What about the kobs (Epac2^fl; 1 μM compound) of the same compound?
**A.** 0.000509 s⁻¹

**Q.** What about the kobs (Epac2^fl; 2 μM compound) of the same compound?
**A.** 0.000819 s⁻¹

**Q.** What about the kobs (Epac2^fl; 3 μM compound) of the same compound?
**A.** 0.000975 s⁻¹

**Q.** What about the kobs (Epac2^fl; 4 μM compound) of the same compound?
**A.** 0.00102 s⁻¹

**Q.** And the kobs (Epac2^fl; 5 μM compound)?
**A.** 0.0011 s⁻¹

**Q.** What about the kobs (Epac2^fl; 6 μM compound) of the same compound?
**A.** 0.00114 s⁻¹

**Q.** What about the kobs (Epac2^fl; 7 μM compound) of the same compound?
**A.** 0.00118 s⁻¹

**Q.** And the kobs (Epac2^fl; 8 μM compound)?
**A.** 0.00118 s⁻¹

**Q.** What about the kobs (Epac2^fl; 10 μM compound) of the same compound?
**A.** 0.00125 s⁻¹

**Q.** What about the kobs (Epac2^fl; 20 μM compound) of the same compound?
**A.** 0.00149 s⁻¹

**Q.** And the kobs (Epac2^fl; 30 μM compound)?
**A.** 0.00153 s⁻¹

**Q.** And the kobs (Epac2^fl; 40 μM compound)?
**A.** 0.00152 s⁻¹

**Q.** And the kobs (Epac2^fl; 50 μM compound)?
**A.** 0.0015 s⁻¹

**Q.** And the kobs (Epac2^fl; 60 μM compound)?
**A.** 0.00155 s⁻¹

**Q.** What about the kobs (Epac2^fl; 70 μM compound) of the same compound?
**A.** 0.00155 s⁻¹

**Q.** What about the kobs (Epac2^fl; 80 μM compound) of the same compound?
**A.** 0.00152 s⁻¹

**Q.** And the kobs (Epac2^fl; 100 μM compound)?
**A.** 0.0015 s⁻¹

**Q.** And the AC50 (Epac2^fl; Epac2^fl)?
**A.** 2100 nM

**Q.** And the “potency relative to cAMP by activation potential (times more potently than cAMP)” value (Epac2^fl; Epac2^fl)?
**A.** 200 times

**Q.** And the Rel. kmax (Epac2^fl; Epac2^fl, maximal activity relative to cAMP)?
**A.** 6.6

**Q.** And the “Kact compared to cAMP (times higher)” value (PKA-Iα; PKA-Iα)?
**A.** three to eight times higher

**Q.** And the EC50 (PKA-Iα; PKA-Iα, read-out: Kact)?
**A.** 290 nM

**Q.** And the “A (PKA activity)” value (PKA-Iα; concentration 1 μM)?
**A.** 1.97E+01 U/mg

**Q.** And the “A (PKA activity)” value (PKA-Iα; concentration 1.00E+01 μM)?
**A.** 2.59E+01 U/mg

**Q.** And the “A (PKA activity)” value (PKA-Iα; concentration 1.00E-01 μM)?
**A.** 9.4227 U/mg

**Q.** And the “A (PKA activity)” value (PKA-Iα; concentration 1.00E-02 μM)?
**A.** 3.6309 U/mg

**Q.** What about the “A (PKA activity)” value (PKA-Iα; concentration 1.00E-03 μM) of the same compound?
**A.** 3.7632 U/mg

**Q.** And the “A (PKA activity)” value (PKA-Iα; concentration 1.00E-05 μM)?
**A.** 3.6309 U/mg

**Q.** What about the “A (PKA activity)” value (PKA-Iα; concentration 2.50E+02 μM) of the same compound?
**A.** 2.40E+01 U/mg

**Q.** And the “A (PKA activity)” value (PKA-Iα; concentration 2.50E-01 μM)?
**A.** 1.33E+01 U/mg

**Q.** What about the “A (PKA activity)” value (PKA-Iα; concentration 5.00E+01 μM) of the same compound?
**A.** 2.52E+01 U/mg

**Q.** And the “Kact compared to cAMP (times higher)” value (PKA-Iβ; PKA-Iβ)?
**A.** three to eight times higher

**Q.** What about the EC50 (PKA-Iβ; PKA-Iβ, read-out: Kact) of the same compound?
**A.** 290 nM

**Q.** And the “A (PKA activity)” value (PKA-Iβ; concentration 1 μM)?
**A.** 2.04E+01 U/mg

**Q.** What about the “A (PKA activity)” value (PKA-Iβ; concentration 1.00E+01 μM) of the same compound?
**A.** 2.34E+01 U/mg

**Q.** What about the “A (PKA activity)” value (PKA-Iβ; concentration 1.00E-01 μM) of the same compound?
**A.** 7.7375 U/mg

**Q.** What about the “A (PKA activity)” value (PKA-Iβ; concentration 1.00E-02 μM) of the same compound?
**A.** 4.3125 U/mg

**Q.** And the “A (PKA activity)” value (PKA-Iβ; concentration 1.00E-03 μM)?
**A.** 4.35 U/mg

**Q.** And the “A (PKA activity)” value (PKA-Iβ; concentration 1.00E-05 μM)?
**A.** 4.525 U/mg

**Q.** And the “A (PKA activity)” value (PKA-Iβ; concentration 1.70E-01 μM)?
**A.** 1.11E+01 U/mg

**Q.** And the “A (PKA activity)” value (PKA-Iβ; concentration 2.50E+02 μM)?
**A.** 2.32E+01 U/mg

**Q.** And the “A (PKA activity)” value (PKA-Iβ; concentration 2.50E-01 μM)?
**A.** 1.38E+01 U/mg

**Q.** What about the “A (PKA activity)” value (PKA-Iβ; concentration 5.00E-01 μM) of the same compound?
**A.** 1.59E+01 U/mg
